From PubChem BioAssay AID1845210 (Molecular Pharmacology Branch, DTP, NCI, 2023)
Several values for one entry are separate records, joined by “and”; a condition that tells them apart may be missing. Equal values may be shown once.

Tested on: NCI-H226 complex tumor spheroids, viability
Experiment: Anticancer human tumor NCI-H226 cell line growth inhibition;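 also: spheroids exposed to compound for 7 days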
Conditions: for viability, T/C: stronger effect = lower value; active = viability on the fitted dose curve at most 10% of control; inactive = the rest
How it was run: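 Complex tumor spheroids combined malignant cells with endothelial cells and mesenchymal stem cells. DNA-damaging drugs and DNA repair inhibitors were tested alone and in combination, at half-log dilutions down from clinical Cmax (top 10 microM if Cmax unknown), 0.25% DMSO final.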

[1] = curve of first compound, second compound 0.003 µM
[2] = second compound 0.003 µM, first compound 0.0316 µM
[3] = second compound 0.003 µM, first compound 0.1 µM
[4] = second compound 0.003 µM, first compound 0.316 µM
[5] = second compound 0.003 µM, first compound 1 µM
[6] = second compound 0.003 µM, first compound 3.16 µM
[7] = second compound 0.003 µM, first compound 10 µM

CC(C)n1c(=O)n(C)c2cnc3cc(F)c(-c4ccc(OCCCN5CCCCC5)nc4)cc3c21 + COc1cc2c(cc1O)CCNC21CSC2c3c(OC(C)=O)c(C)c4c(c3C(COC1=O)N1C(O)C3Cc5cc(C)c(OC)c(O)c5C(C21)N3C)OCO4
active: viability, T/C [2] 1.2% | viability, T/C [3] 2.1% | viability, T/C [4] 1.2% | viability, T/C [5] 3.57% | viability, T/C [6] 1.96% | viability, T/C [7] 1%
6.99 µM: IC50 (curve of first compound, second compound 0.0003 µM)
6.76 µM: IC50 (curve of first compound, second compound 0.000949 µM)
6.75 µM: IC50 (curve of first compound, second compound 94.9 pM)
< 0.0316 µM: IC50 [1]
9.84 µM: IC50 (curve of first compound, second compound 30 pM)
inactive: viability, T/C (second compound 30 pM, first compound 0.0316 µM) 110% | viability, T/C (second compound 30 pM, first compound 0.1 µM) 102% | viability, T/C (second compound 30 pM, first compound 0.316 µM) 121% | viability, T/C (second compound 30 pM, first compound 1 µM) 110% | viability, T/C (second compound 30 pM, first compound 3.16 µM) 91% | viability, T/C (second compound 30 pM, first compound 10 µM) 49.4% | viability, T/C (second compound 94.9 pM, first compound 0.0316 µM) 108% | viability, T/C (second compound 94.9 pM, first compound 0.1 µM) 102% | viability, T/C (second compound 94.9 pM, first compound 0.316 µM) 112% | viability, T/C (second compound 94.9 pM, first compound 1 µM) 103% | viability, T/C (second compound 94.9 pM, first compound 3.16 µM) 90.4% | viability, T/C (second compound 94.9 pM, first compound 10 µM) 29.2% | viability, T/C (second compound 0.0003 µM, first compound 0.0316 µM) 107% | viability, T/C (second compound 0.0003 µM, first compound 0.1 µM) 125% | viability, T/C (second compound 0.0003 µM, first compound 0.316 µM) 122% | viability, T/C (second compound 0.0003 µM, first compound 1 µM) 102% | viability, T/C (second compound 0.0003 µM, first compound 3.16 µM) 102% | viability, T/C (second compound 0.0003 µM, first compound 10 µM) 27.4% | viability, T/C (second compound 0.000949 µM, first compound 0.0316 µM) 98.2% | viability, T/C (second compound 0.000949 µM, first compound 0.1 µM) 103% | viability, T/C (second compound 0.000949 µM, first compound 0.316 µM) 104% | viability, T/C (second compound 0.000949 µM, first compound 1 µM) 120% | viability, T/C (second compound 0.000949 µM, first compound 3.16 µM) 97.4% | viability, T/C (second compound 0.000949 µM, first compound 10 µM) 25.4%

COc1ccc([C@@H](O)c2cc(-c3ncnc4cc(N5CCOCC5)ccc34)c(F)cc2Cl)nn1 + Cn1nnc2c(C(N)=O)ncn2c1=O
inactive: viability, T/C (second compound 1 µM, first compound 0.0316 µM) 94.3% | viability, T/C (second compound 1 µM, first compound 0.1 µM) 100% | viability, T/C (second compound 1 µM, first compound 0.316 µM) 89% | viability, T/C (second compound 1 µM, first compound 1 µM) 66.8% | viability, T/C (second compound 1 µM, first compound 3.16 µM) 60.8% | viability, T/C (second compound 1 µM, first compound 10 µM) 37.5% | viability, T/C (second compound 3.16 µM, first compound 0.0316 µM) 95.2% | viability, T/C (second compound 3.16 µM, first compound 0.1 µM) 101% | viability, T/C (second compound 3.16 µM, first compound 0.316 µM) 92.2% | viability, T/C (second compound 3.16 µM, first compound 1 µM) 67.9% | viability, T/C (second compound 3.16 µM, first compound 3.16 µM) 52.1% | viability, T/C (second compound 3.16 µM, first compound 10 µM) 38.1% | viability, T/C (second compound 10 µM, first compound 0.0316 µM) 86.9% | viability, T/C (second compound 10 µM, first compound 0.1 µM) 89.4% | viability, T/C (second compound 10 µM, first compound 0.316 µM) 90.4% | viability, T/C (second compound 10 µM, first compound 1 µM) 73.8% | viability, T/C (second compound 10 µM, first compound 3.16 µM) 52.1% | viability, T/C (second compound 10 µM, first compound 10 µM) 34.4% | viability, T/C (second compound 31.6 µM, first compound 0.0316 µM) 98.5% | viability, T/C (second compound 31.6 µM, first compound 0.1 µM) 91.8% | viability, T/C (second compound 31.6 µM, first compound 0.316 µM) 91% | viability, T/C (second compound 31.6 µM, first compound 1 µM) 67.5% | viability, T/C (second compound 31.6 µM, first compound 3.16 µM) 54.2% | viability, T/C (second compound 31.6 µM, first compound 10 µM) 36.7% | viability, T/C (second compound 100 µM, first compound 0.0316 µM) 111% | viability, T/C (second compound 100 µM, first compound 0.1 µM) 107% | viability, T/C (second compound 100 µM, first compound 0.316 µM) 95.8% | viability, T/C (second compound 100 µM, first compound 1 µM) 75.9% | viability, T/C (second compound 100 µM, first compound 3.16 µM) 56.1% | viability, T/C (second compound 100 µM, first compound 10 µM) 38.1%
4.53 µM: IC50 (curve of first compound, second compound 100 µM)
3.69 µM: IC50 (curve of first compound, second compound 31.6 µM)
2.97 µM: IC50 (curve of first compound, second compound 3.16 µM)
4.71 µM: IC50 (curve of first compound, second compound 1 µM)
3.43 µM: IC50 (curve of first compound, second compound 10 µM)

[2H]c1nc(C)nc([2H])c1-c1cc(NC[C@@H](C)c2cccc3c(C(=O)NC)ccnc23)ncn1 + CC[C@@]1(O)C(=O)OCc2c1cc1n(c2=O)Cc2cc3c(CN(C)C)c(O)ccc3nc2-1
> 10 µM: IC50 [1] | IC50 (curve of first compound, second compound 0.00949 µM) | IC50 (curve of first compound, second compound 0.03 µM) | IC50 (curve of first compound, second compound 0.0949 µM) | IC50 (curve of first compound, second compound 0.3 µM)
inactive: viability, T/C [2] 89.6% | viability, T/C [3] 93.2% | viability, T/C [4] 92.6% | viability, T/C [5] 82% | viability, T/C [6] 79.5% | viability, T/C [7] 88.1% | viability, T/C (second compound 0.00949 µM, first compound 0.0316 µM) 86.8% | viability, T/C (second compound 0.00949 µM, first compound 0.1 µM) 88.3% | viability, T/C (second compound 0.00949 µM, first compound 0.316 µM) 93% | viability, T/C (second compound 0.00949 µM, first compound 1 µM) 86.7% | viability, T/C (second compound 0.00949 µM, first compound 3.16 µM) 84.3% | viability, T/C (second compound 0.00949 µM, first compound 10 µM) 88.5% | viability, T/C (second compound 0.03 µM, first compound 0.0316 µM) 79% | viability, T/C (second compound 0.03 µM, first compound 0.1 µM) 82% | viability, T/C (second compound 0.03 µM, first compound 0.316 µM) 84.3% | viability, T/C (second compound 0.03 µM, first compound 1 µM) 79% | viability, T/C (second compound 0.03 µM, first compound 3.16 µM) 81.5% | viability, T/C (second compound 0.03 µM, first compound 10 µM) 73% | viability, T/C (second compound 0.0949 µM, first compound 0.0316 µM) 88.8% | viability, T/C (second compound 0.0949 µM, first compound 0.1 µM) 89% | viability, T/C (second compound 0.0949 µM, first compound 0.316 µM) 85.1% | viability, T/C (second compound 0.0949 µM, first compound 1 µM) 83% | viability, T/C (second compound 0.0949 µM, first compound 3.16 µM) 80.5% | viability, T/C (second compound 0.0949 µM, first compound 10 µM) 86.5% | viability, T/C (second compound 0.3 µM, first compound 0.0316 µM) 59.8% | viability, T/C (second compound 0.3 µM, first compound 0.1 µM) 70.4% | viability, T/C (second compound 0.3 µM, first compound 0.316 µM) 65.5% | viability, T/C (second compound 0.3 µM, first compound 1 µM) 71.9% | viability, T/C (second compound 0.3 µM, first compound 3.16 µM) 59.5% | viability, T/C (second compound 0.3 µM, first compound 10 µM) 60.7%

O=C(c1cc(Cc2n[nH]c(=O)c3ccccc23)ccc1F)N1CCN(C(=O)C2CC2)CC1
> 30 µM: IC50 (curve of compound)
inactive: viability, T/C (compound 0.0949 µM) 98.6% and 105% and 103% | viability, T/C (compound 0.3 µM) 97.1% and 100% and 96.8% | viability, T/C (compound 0.949 µM) 104% (2×) and 101% | viability, T/C (compound 3 µM) 98.5% and 99.3% and 93.9% | viability, T/C (compound 9.49 µM) 96.9% and 87.4% and 106% | viability, T/C (compound 30 µM) 92.1% and 79% and 86.7%
